Assay results as given in paper PMC6192554, “In vitro toxicity and efficacy of verdinexor, an exportin 1 inhibitor, on opportunistic viruses affecting immunocompromised individuals” (PLoS ONE, 2018).

Experiments:
[1] = test system: Epstein-Barr virus (EBV) Akata strain; test: EBV secondary assay, qPCR of viral DNA in induced Akata cells; assay type: cell-based
Procedure: EBV Akata strain was assayed in Akata cells (John Sixbey, LSU) latently infected with EBV (and therefore oncogenic). Cells were maintained in RPMI 1640, (Mediatech) with 10% FBS (Hyclone), L-glutamine, penicillin and gentamicin.
Secondary assay for EBV were performed in Akata cells that were induced to undergo a lytic infection with 50μg/ml of a goat anti-human IgG antibody by methods we reported previously. Experimental compounds were diluted in round bottom 96-well plates to yield concentrations ranging from 0.0032–100μM. Akata cells were added to the plates at a concentration of 4×10^4 cells per well and […]. Assay plates were incubated for seven days at 37°C. For all assays, the replication of the virus was assessed by the quantification of viral DNA. For primer sequences, please see S1 Table. EBV DNA was purified according to manufacturer’s instructions (Wizard SV 96 Genomic DNA Purification System). The purified DNA was then subjected to qPCR that amplified a fragment corresponding to nucleotides 96802–97234 in the EBV genome (AJ507799). Plasmid pMP218 containing a DNA sequences corresponding to nucleotides 14120–14182 (AF148805.2) was used to provide absolute quantification of viral DNA. Compound concentrations sufficient to reduce genome copy number by 50% were calculated from experimental data.

[2] = test system: Human CMV strain AD169; test: HCMV yield reduction assay in HFF cells; assay type: cell-based, human cytomegalovirus; settings: Human betaherpesvirus 5, AD169, HFF
Procedure: Human CMV strain AD169 was obtained from ATCC and assayed in human foreskin fibroblast cells (HFF). HFF cells were prepared at the University of Alabama at Birmingham (UAB) tissue procurement facility with IRB approval as previously described. Yield reduction assays for HCMV were performed on monolayers of HFF cells prepared in 96-well plates and incubated at 37°C for 1d to allow the cells to reach confluency. Media was then aspirated from the wells were infected at a high multiplicity of infection (MOI). At 1h following infection, the inocula were removed and the monolayers rinsed with fresh media. Compounds were then diluted in assay media consisting of MEM with Earl’s salts supplemented with 2% FBS, L-glutamine, penicillin, and gentamycin. Solutions ranging from 0.0032–10μM in primary assay and 0.032–100μM in secondary assay were added to the wells and the plates were incubated for various times, depending on the virus used and represents the length of a single replication cycle for the virus. A duplicate set of dilutions were also performed but remained uninfected to serve as a cytotoxicity control and received equal compound exposure. Supernatants from each of the infected wells were subsequently titered in a TCID50 assay to quantify the progeny virus.

[3] = test system: Human adenovirus type 5; test: Adenovirus virus yield (TCID50) assay in HeLa cells; assay type: cell-based; settings: Human mastadenovirus C
Procedure: Human adenovirus type 5 was obtained from ATCC and cultured in HeLa cells under standard conditions.
Prior to assessing cell viability using MTS, supernatants were collected from plates and titrated to determine virus yield. Serial dilutions of supernatants were incubated on HeLa cells for 3 days. Following incubation, wells were visually scored for infection and TCID50, EC50, CC50 and SI were calculated for each sample.

[4] = Cytotoxicity in primary human keratinocytes (PHK); assay type: cell-based; settings: HPV-18 secondary screen, PHKs
Procedure: Cytotoxicity assays: Concurrent assessment of cytotoxicity was also performed for each study in the same cell line and with the same compound exposure.
HPV cytotoxicity assay was performed at the time of viral harvest by scoring cells in a BioRad Automatic Cell Counter for cell viability.
For secondary assays, the amplification of HPV-18 DNA was determined in an organotypic squamous epithelial raft culture of PHKs. Whole genomic HPV-18 plasmids were generated in plasmid-transfected PHKs and developed into organotypic cultures as described. Based on the results of a 3-day toxicity assay, concentrations of test compound were added to a subset of raft cultures from day 6 through day 13 when the cultures were harvested. Similarly treated normal PHK raft cultures were also prepared to assess toxicity of uninfected tissue. One set of cultures were fixed in 10% buffered formalin, paraffin embedded and sectioned for in situ assay. Sections were stained with hematoxylin and eosin. Total DNA harvest from unfixed raft cultures was used to determine the HPV-18 copy number/per cell by qPCR. Inhibition was expressed as % of viral DNA copies relative to the untreated cultures.

[5] = test system: KSHV strain BCBL-1; test: KSHV qPCR of viral DNA in PMA-induced BCBL-1 cells; assay type: cell-based, Kaposi's sarcoma-associated herpesvirus; settings: Human gammaherpesvirus 8, BCBL1, KSHV
Procedure: KSHV strain BCBL-1 was obtained as latently infected BCBL-1 cells through the NIH AIDS Research and Reference Reagent Program. BCBL-1 cells were maintained in growth medium consisting of RPMI 1640 supplemented with 10% FBS, penicillin, gentamicin, and l-glutamine.
To quantify virus, compound was diluted from 0.008–100μM and added to BCBL-1 cells induced to undergo a lytic infection by the addition of 100ng/ml phorbol 12-myristate 13-acetate (PMA) (Promega). After 7d, total DNA was prepared, and viral DNA was quantified by qPCR (see S1 Table for primer/probe sequences). Plasmid pMP218 containing a DNA sequence corresponding to nucleotides 14120–14182 (AF148805.2) was used to provide absolute quantification of viral DNA and EC50 [11].

[6] = test system: BK polyomavirus (BKPyV) Gardner strain; test: BKPyV qPCR genome copy assay in HFF cells; assay type: cell-based; settings: Betapolyomavirus hominis
Procedure: John Cunningham polyomavirus (JCPyV) strains MAD-1 and MAD-4 and BK polyomavirus (BKPyV) Gardner strain were obtained from ATCC. COS-7 cells were obtained from ATCC and maintained according to ATCC-supplied protocols.
Primary assays for BKPyV were performed in 384-well plates containing monolayers of HFF cells. Compound dilutions ranging from 0.0032–100μM were prepared in plates containing cells which were subsequently infected at an MOI of 0.001. After a 7d incubation, total DNA was prepared using Extracta and genome copy number was quantified by qPCR using the primers and probe listed in S1 Table [18]. Plasmid pMP526 served as the DNA standard for quantification purposes. Compounds were confirmed in a similar assay in 96-well plates according to established laboratory protocols with the compounds added 1h […] to identify compounds that inhibit early stages of replication including adsorption and entry. Genome copy number was determined by methods described above.

[7] = Cytotoxicity in GPL cells; assay type: cell-based; settings: primary guinea pig lung cells (GPL), Guinea pig CMV primary screen
Procedure: Cytotoxicity assays: Concurrent assessment of cytotoxicity was also performed for each study in the same cell line and with the same compound exposure. For HCMV cytotoxicity assay was determined via neutral red uptake assay and was conducted as reported previously in HFF cells. Optical densities were determined at 550nm. Cytotoxicity assay was performed in a manner analogous to HCMV (see above).

O=C(C=Cn1cnc(-c2cc(C(F)(F)F)cc(C(F)(F)F)c2)n1)NNc1ccccn1 (stereo in doubt) [verdinexor, (E)-3-[3-[3,5-bis(trifluoromethyl)phenyl]-1,2,4-triazol-1-yl]-N'-pyridin-2-ylprop-2-enehydrazide]
SI (Selectivity Index, CC50/EC50) ([1]; EBV, secondary screen, qPCR): 7 | EC50 ([1]; human gammaherpesvirus 4, Akata): 0.05 µM | EC50 ([2]; primary screen): 0.19 µM | EC50 ([2]; secondary screen): 2.5 µM | EC50 ([3]; Ad5, primary screen): > 0.18 µM | EC50 ([3]; Ad5, secondary screen): < 0.03 µM | CC50 [4]: 8.3 µM | EC50 ([5]; primary screen): < 0.8 µM | EC50 ([5]; secondary screen): 0.27 µM | EC50 ([6]; primary screen): 7.62 µM | EC50 ([6]; secondary screen, compound added 1h post-infection): 2.29 µM | CC50 [7]: 2 µM
